What was measured:
[1] = tested on: bovine muscle progenitor cells; experiment: Serum-free myogenic differentiation with or without Notch pathway inhibition, brightfield microscopy (Example 5, FIG. 3); format: cell-based
Protocol: Myogenic progenitor cells as disclosed in Example 2 were plated in Matrigel-coated (1:200 in PBS) plates at a seeding density of 40 k cells/cm^2 and cultured for 24 h in a serum-free proliferation medium as disclosed in Example 2. Myogenic differentiation was induced by adding an exemplary serum-free differentiation medium (Table 3) in the presence and absence of DAPT (gamma-Secretase inhibitor #ab120633, abcam) at 0 μM (absence of DAPT; control medium), 1 μM, 5 μM and 10 μM. Cells were imaged with brightfield microscopy and the differentiation phenotypes were compared.

[2] = tested on: Bovine muscle progenitor cells; experiment: Serum-free myogenic differentiation of bovine muscle progenitor cells into myocytes (Example 3, FIG. 1 and 2); format: cell-based, Bos taurus; conditions: cells previously proliferated in serum-free proliferation medium, one inducer per medium (lactate 10 mM, LPA 5 uM, oxytocin 50 nM or glucagon 1 uM), different basal formulations
Protocol: The DMEM/F12 1:1 or 10:1 or 1:0 or alpha-MEM or M199 medium was supplemented with albumin (recombinant human albumin from Richcore) at 0.5 mg/ml, insulin (recombinant human insulin, 10-365 from Peprotech) at 19.4 ug/ml, transferrin (recombinant human transferrin, 10-366 from Peprotech) at 10.7 ug/ml, sodium selenite (S5261 from SigmaAldrich) at 0.014 ug/ml, Ethanolamine from Sigma Aldrich cat nr E9508 at 4 ug/ml, ascorbic acid (L-ascorbic acid 2-phosphate sesquimagnesium salt hydrate, A8960 from SigmaAldrich) at 115.22 ug/ml, EGF (recombinant human EGF, AF-100-15 from Peprotech) at 10 ng/ml and one of the following inducers: lactate (Sodium L-lactate, 71718 from SigmaAldrich) at 10 mM, LPA (Oleoyl-L-α-lysophosphatidic acid sodium salt, L7260 from SigmaAldrich) at 5 uM, oxytocin (06379 from SigmaAldrich) at 50 nM, or glucagon (G2044 from SigmaAldrich) at 1 uM.
Bovine muscle progenitor cells were isolated from a bovine muscle tissue (Bos taurus) and sorted based on their positive expression of CD29 as previously described (Ding et al., Sci. Rep., 17(8): 10808 (2018)). Muscle progenitor cells were propagated in a serum-free proliferation medium for at least 8 population doublings prior to differentiation. […]

SMILES | myogenic differentiation of bovine muscle progenitor cells into myocytes compared to control medium without DAPT ([1]; DAPT 1 uM, 5 uM and 10 uM, serum-free differentiation medium of Table 3 (lactate 10 mM), FIG. 3) | number of cells that fuse into myotubes ([1]; DAPT added during myogenic differentiation) | induction of serum-free myogenic differentiation [2]
C[C@H](NC(=O)Cc1cc(F)cc(F)c1)C(=O)N[C@H](C(=O)OC(C)(C)C)c1ccccc1 [DAPT] | improved myogenic differentiation | increases the number of cells that fuse into myotubes | –
C[C@H](O)C(=O)[O-].[Na+] [lactate, Sodium L-lactate] | – | – | induction of serum-free myogenic differentiation could be achieved
